This note sets out measurements from ChEMBL document CHEMBL3853280, “Unexpected Metabolic Versatility in a Combined Fungal Fomannoxin/Vibralactone Biosynthesis” (2016).

Common to all, as to format: functional
The subject of one test is Aspergillus fumigatus. As to the kind of experiment: Antifungal activity against Aspergillus fumigatus by broth dilution assay. On the technique in general: In broth dilution the organism is exposed to a series of concentrations in liquid medium.
The nature of test [1]: Antifungal activity against Penicillium notatum by broth dilution assay. The settings on record: Penicillium chrysogenum.
The next test has as its system Trichophyton benhamiae. As to the kind of experiment: Antifungal activity against Arthroderma benhamiae by broth dilution assay.

≈ marks a conversion by molar mass, not a printed value. Bounds are passed on as bounds.

For the compound `CC(=O)OCC1=C[C@@]2(CC=C(C)C)C(=O)O[C@H]2C1`, the figures for the MIC (against Aspergillus fumigatus; in test [1]; in the test with Trichophyton benhamiae) were greater than 100 µg/mL, 25 µg/mL (≈ 99.9 µM) and 50 µg/mL (≈ 200 µM), respectively.

Turning to `C=C(C)COc1ccc(C(=O)OC)cc1C=O`, the MIC against Aspergillus fumigatus was 50 µg/mL (≈ 213 µM); in test [1], 25 µg/mL (≈ 107 µM); against Trichophyton benhamiae, 6.25 µg/mL (≈ 26.7 µM).

Regarding `C=C(C)COc1ccc(C(=O)OC)cc1CO`, the MIC in the test with Aspergillus fumigatus is greater than 100 µg/mL; in test [1], 25 µg/mL (≈ 106 µM); against Trichophyton benhamiae, 25 µg/mL (≈ 106 µM).

Take `CC(C)=CC[C@@]12C=C(CO)C[C@@H]1OC2=O`: the MIC in the test on Aspergillus fumigatus was greater than 100 µg/mL; in test [1], 25 µg/mL (≈ 120 µM); with Trichophyton benhamiae it was 50 µg/mL (≈ 240 µM).

Regarding `COC(=O)c1ccc(OC=C(C)C)cc1`, the MIC was greater than 100 µg/mL against Aspergillus fumigatus, 25 µg/mL (≈ 121 µM) in test [1] and 100 µg/mL (≈ 485 µM) in the test with Trichophyton benhamiae.

`CC1=CC=C(CC2CCOC2=O)C(=O)OC1` (centres undefined): the MIC is greater than 100 µg/mL against Aspergillus fumigatus, 25 µg/mL (≈ 112 µM) in test [1] and greater than 100 µg/mL against Trichophyton benhamiae.

Turning to `CC(C)=C/C=C/C=C1\CCOC1=O`, the figures for the minimum inhibitory concentration (MIC) (with Aspergillus fumigatus; in test [1]; in the test on Trichophyton benhamiae) were greater than 100 µg/mL, 25 µg/mL (≈ 140 µM) and 12.5 µg/mL (≈ 70.1 µM), respectively.

For the compound `COC(=O)c1ccc(OC=C(C)C)c(CO)c1`, the results for the MIC (with Aspergillus fumigatus; in test [1]; with Trichophyton benhamiae) were 50 µg/mL (≈ 212 µM), 25 µg/mL (≈ 106 µM) and 6.25 µg/mL (≈ 26.5 µM), respectively.

What is called MIC is the lowest concentration found to suppress growth. Low readings indicate inhibition by little substance, high ones a need for much substance.
